Test results: patent US11753404B2, “Aminothiazole compounds as c-Kit inhibitors” (Ariad Pharmaceuticals, Inc., priority 2016, dated 2023)

How the values were obtained:
Test in all cases: c-Kit assay: Ba/F3 KIT mutant cell viability (Cell Titer-Glo, 72 hours)
Assay type in all cases: cell-based
Conditions in all cases: viability after 72 hours
[1] = target: T1, BAF3 FL KIT EX11DEL/D816H (Homo sapiens, UniProt P10721, D816H, cells depend on it, form not given)
T1 construct: BAF3 FL KIT EX11DEL/D816H
T1 sequence (P10721 with tags, fused parts or gaps DEL557-558/D816H, form open): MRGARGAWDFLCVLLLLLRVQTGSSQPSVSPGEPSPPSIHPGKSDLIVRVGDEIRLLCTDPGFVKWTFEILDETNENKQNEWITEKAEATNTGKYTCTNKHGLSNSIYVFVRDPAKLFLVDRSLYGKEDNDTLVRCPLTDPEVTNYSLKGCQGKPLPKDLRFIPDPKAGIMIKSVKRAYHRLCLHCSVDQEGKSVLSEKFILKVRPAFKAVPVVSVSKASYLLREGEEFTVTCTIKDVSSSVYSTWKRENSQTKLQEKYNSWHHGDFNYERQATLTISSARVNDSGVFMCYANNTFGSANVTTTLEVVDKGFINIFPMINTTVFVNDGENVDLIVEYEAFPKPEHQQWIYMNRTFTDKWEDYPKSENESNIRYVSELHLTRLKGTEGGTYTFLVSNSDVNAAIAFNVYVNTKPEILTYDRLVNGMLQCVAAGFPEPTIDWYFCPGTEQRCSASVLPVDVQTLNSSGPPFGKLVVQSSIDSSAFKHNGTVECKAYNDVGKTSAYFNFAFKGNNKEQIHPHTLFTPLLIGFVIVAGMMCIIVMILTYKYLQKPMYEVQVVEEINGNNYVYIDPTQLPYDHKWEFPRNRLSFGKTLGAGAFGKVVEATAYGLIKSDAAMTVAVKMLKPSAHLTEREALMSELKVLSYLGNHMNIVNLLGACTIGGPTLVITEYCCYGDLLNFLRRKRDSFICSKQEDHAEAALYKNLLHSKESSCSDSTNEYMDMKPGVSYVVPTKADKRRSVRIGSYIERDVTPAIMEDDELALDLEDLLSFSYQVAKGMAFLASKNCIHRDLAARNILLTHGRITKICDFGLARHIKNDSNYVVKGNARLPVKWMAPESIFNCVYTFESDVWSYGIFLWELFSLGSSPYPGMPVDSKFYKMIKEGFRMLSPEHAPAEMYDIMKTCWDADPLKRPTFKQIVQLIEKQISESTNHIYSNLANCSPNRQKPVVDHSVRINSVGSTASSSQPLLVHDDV
Protocol: (§1) Generation of DBa/F3 KIT Mutant Engineered Cell Lines
(§2) KIT cDNAs were synthesized by GenScript and cloned into the pLVX-IRES-Puro vector (Clontech). Viral particles were produced by transfecting pLVX-IRES-puro vectors containing KIT mutant genes into HEK293 cells (Invitrogen) using the Trans-Lentiviral ORF Packaging Kit (Thermo Scientific). 48 hours post-transfection, virus-containing supernatants were harvested and incubated for another 48-72 hours with parental Ba/F3 cells (DSMZ) in the presence of 10 ng/mL IL-3 (R&D Systems). Transduced Ba/F3 cells were then selected by IL-3 withdrawal and puromycin (0.5-1 μg/mL, Invitrogen).
(§3) Cell lines (e.g., EX11DEL, EX11DEL/D816H, EX11DEL/T670I, and EX11DEL/V654A) were plated into 384 well plates using RPMI 1640 supplemented with 10% FBS at densities that produced linear growth and incubated at 37° C. in 5% (v/v) CO2. Cells were treated with eight concentrations of compound over a 4-fold dilution (10 μM to 0.61 nM) and viability was assessed using Cell Titer-Glo assay (Promega) after 72 hours. Data were plotted as percent viability relative to vehicle-treated cells. Dose-responses curves were generated and used to calculate IC50 values.

[2] = target: T2, BAF3 FL KIT EX11DEL/V654A (Homo sapiens, UniProt P10721, V654A, cells depend on it, form not given)
T2 construct: BAF3 FL KIT EX11DEL/V654A
T2 sequence (P10721 with tags, fused parts or gaps DEL557-558/V654A, form open): as the sequence (P10721 with tags, fused parts or gaps DEL557-558/D816H, form open) above, with V652A, H814D counted along it
Protocol: as §1, §2, §3

[3] = target: T3, BAF3 FL KIT EX11DEL/T670I (Homo sapiens, UniProt P10721, T670I, cells depend on it, form not given)
T3 construct: BAF3 FL KIT EX11DEL/T670I
T3 sequence (P10721 with tags, fused parts or gaps DEL557-558/T670I, form open): as the sequence (P10721 with tags, fused parts or gaps DEL557-558/D816H, form open) above, with T668I, H814D counted along it
Protocol: as §1, §2, §3

BAF3 FL KIT EX11DEL = target: T4, BAF3 FL KIT EX11DEL (Homo sapiens, UniProt P10721, cells depend on it, form not given)
T4 construct: BAF3 FL KIT EX11DEL
T4 sequence (P10721 with tags, fused parts or gaps DEL557-558): as the sequence (P10721 with tags, fused parts or gaps DEL557-558/D816H, form open) above, with H814D counted along it
Protocol: as §1, §2, §3

SMILES	GI50 [1] [µM]	GI50 [2] [µM]	GI50 [3] [µM]	GI50 (BAF3 FL KIT EX11DEL) [µM]
CNC(=O)Nc1ncc(C#Cc2cc(NC(=O)c3cc(C(F)(F)F)ccn3)ccc2C)s1 [I-57, N-(4-methyl-3-((2-(3-methylureido)thiazol-5-yl)ethynyl)phenyl)-4-(trifluoromethyl)picolinamide]	< 0.01	< 0.01	0.01 to 0.05	< 0.01
Cc1ccc(C(=O)Nc2cc(C(F)(F)F)ccn2)cc1C#Cc1cnc(NC(=O)N(C)CCN(C)C)s1 [I-9, 3-((2-(3-(2-(dimethylamino)ethyl)-3-methylureido)thiazol-5-yl)ethynyl)-4-methyl-N-(4-(trifluoromethyl)pyridin-2-yl)benzamide]	0.01 to 0.05	0.01 to 0.05	< 0.01	< 0.01
Cc1ccc(C(=O)Nc2cc(C(F)(F)F)ccn2)cc1C#Cc1cnc(NC(=O)NCCN2CCN(C)CC2)s1 [I-14, 4-methyl-3-((2-(3-(2-(4-methylpiperazin-1-yl)ethyl)ureido)thiazol-5-yl)ethynyl)-N-(4-(trifluoromethyl)pyridin-2-yl)benzamide]	0.01 to 0.05	0.01 to 0.05	0.01 to 0.05	< 0.01
CNC(=O)Nc1ncc(C#Cc2cc(C(=O)Nc3cc(C(F)(F)F)ccn3)ccc2F)s1 [I-45, 4-fluoro-3-((2-(3-methylureido)thiazol-5-yl)ethynyl)-N-(4-(trifluoromethyl)pyridin-2-yl)benzamide]	0.01 to 0.05	0.01 to 0.05	< 0.01	< 0.01
CC(=O)N1CCN(C(=O)Nc2ncc(C#Cc3cc(C(=O)Nc4cc(C(F)(F)F)ccn4)ccc3C)s2)CC1 [I-37, 4-acetyl-N-(5-((2-methyl-5-((4-(trifluoromethyl)pyridin-2-yl)carbamoyl)phenyl)ethynyl)thiazol-2-yl)piperazine-1-carboxamide]	< 0.01	< 0.01	< 0.01	< 0.01
Cc1ccc(NC(=O)c2cc(C(F)(F)F)ccn2)cc1C#Cc1cnc(NC(=O)N(C)CCN2CCN(C)CC2)s1 [I-55, N-(4-methyl-3-((2-(3-methyl-3-(2-(4-methylpiperazin-1-yl)ethyl)ureido)thiazol-5-yl)ethynyl)phenyl)-4-(trifluoromethyl)picolinamide]	0.01 to 0.05	0.01 to 0.05	0.05 to 0.1	
Cc1ccc(C(=O)Nc2cc(C(F)(F)F)ccn2)cc1C#Cc1cnc(NC(=O)C(C)(C)C)s1 [I-52, 4-methyl-3-((2-pivalamidothiazol-5-yl)ethynyl)-N-(4-(trifluoromethyl)pyridin-2-yl)benzamide]	0.1 to 10	0.1 to 10	0.1 to 10	0.01 to 0.05
Cc1ccc(C(=O)Nc2ccc(CN3CCN(C)CC3)c(C(F)(F)F)c2)cc1C#Cc1cnc(NC(=O)C2CC2)s1 [I-50, 3-((2-(cyclopropanecarboxamido)thiazol-5-yl)ethynyl)-4-methyl-N-(4-((4-methylpiperazin-1-yl)methyl)-3-(trifluoromethyl)phenyl)benzamide]	0.01 to 0.05	0.1 to 10	0.01 to 0.05	0.01 to 0.05
CCN(C)C(=O)Nc1ncc(C#Cc2cc(C(=O)Nc3cc(C(F)(F)F)ccn3)ccc2C)s1 [I-8, 3-((2-(3-ethyl-3-methylureido)thiazol-5-yl)ethynyl)-4-methyl-N-(4-(trifluoromethyl)pyridin-2-yl)benzamide]	< 0.01	0.01 to 0.05	< 0.01	< 0.01
Cc1ccc(C(=O)Nc2cc(C(F)(F)F)ccn2)cc1C#Cc1cnc(NC(=O)N(C)C2CCC(N)CC2)s1 (centres unmarked) [I-33, 3-((2-(3-(4-aminocyclohexyl)-3-methylureido)thiazol-5-yl)ethynyl)-4-methyl-N-(4-(trifluoromethyl)pyridin-2-yl)benzamide]	0.05 to 0.1	0.05 to 0.1	0.01 to 0.05	0.01 to 0.05
Cc1ccc(C(=O)Nc2cc(C(F)(F)F)ccn2)cc1C#Cc1cnc(NC(=O)NCCCCN)s1 [I-31, 3-((2-(3-(4-aminobutyl)ureido)thiazol-5-yl)ethynyl)-4-methyl-N-(4-(trifluoromethyl)pyridin-2-yl)benzamide]	0.05 to 0.1	0.05 to 0.1	0.01 to 0.05	0.01 to 0.05
Cc1ccc(C(=O)Nc2cc(C(F)(F)F)ccn2)cc1C#Cc1cnc(NC(=O)N(C)CCN2CCCC2)s1 [I-19, 4-methyl-3-((2-(3-methyl-3-(2-(pyrrolidin-1-yl)ethyl)ureido)thiazol-5-yl)ethynyl)-N-(4-(trifluoromethyl)pyridin-2-yl)benzamide]	0.01 to 0.05	0.01 to 0.05	0.01 to 0.05	< 0.01
Cc1ccc(C(=O)Nc2cc(C(F)(F)F)ccn2)cc1C#Cc1cnc(NC(=O)NCCN)s1 [I-38, 3-((2-(3-(2-aminoethyl)ureido)thiazol-5-yl)ethynyl)-4-methyl-N-(4-(trifluoromethyl)pyridin-2-yl)benzamide]	0.05 to 0.1	0.05 to 0.1	0.05 to 0.1	< 0.01
CNC(=O)Nc1ncc(C#Cc2ccc(F)c(C(=O)Nc3cc(C(F)(F)F)ccn3)c2)s1 [I-42, 2-fluoro-5-((2-(3-methylureido)thiazol-5-yl)ethynyl)-N-(4-(trifluoromethyl)pyridin-2-yl)benzamide]	0.1 to 10	0.1 to 10	0.1 to 10	< 0.01
Cc1ccc(C(=O)Nc2cc(C(F)(F)F)ccn2)cc1C#Cc1cnc(NC(=O)N(C)C2CN(C)C2)s1 [I-39, 4-methyl-3-((2-(3-methyl-3-(1-methylazetidin-3-yl)ureido)thiazol-5-yl)ethynyl)-N-(4-(trifluoromethyl)pyridin-2-yl)benzamide]	0.1 to 10	0.1 to 10	0.1 to 10	0.01 to 0.05
COC(=O)Nc1ncc(C#Cc2cc(C(=O)Nc3cc(C(F)(F)F)ccn3)ccc2C)s1 [I-3, methyl (5-((2-methyl-5-((4-(trifluoromethyl)pyridin-2-yl)carbamoyl)phenyl)ethynyl)thiazol-2-yl)carbamate]	0.01 to 0.05	0.01 to 0.05	0.01 to 0.05	< 0.01
Cc1ccc(C(=O)Nc2cc(C(F)(F)F)ccn2)cc1C#Cc1cnc(NC(=O)N2CC(C)(O)C2)s1 [I-24, 3-hydroxy-3-methyl-N-(5-((2-methyl-5-((4-(trifluoromethyl)pyridin-2-yl)carbamoyl)phenyl)ethynyl)thiazol-2-yl)azetidine-1-carboxamide]	< 0.01	< 0.01	< 0.01	< 0.01
Cc1ccc(C(=O)Nc2cc(C(F)(F)F)ccn2)cc1C#Cc1cnc(NC(=O)N(C)C2CCCN(C)C2)s1 (centres unmarked) [I-32, 4-methyl-3-((2-(3-methyl-3-(1-methylpiperidin-3-yl)ureido)thiazol-5-yl)ethynyl)-N-(4-(trifluoromethyl)pyridin-2-yl)benzamide]	0.01 to 0.05	0.01 to 0.05	0.01 to 0.05	< 0.01
Cc1ccc(NC(=O)c2cc(C(F)(F)F)ccn2)cc1C#Cc1cnc(NC(=O)N(C)C2CCN(C)CC2)s1 [I-53, N-(4-methyl-3-((2-(3-methyl-3-(I-methylpiperidin-4-yl)ureido)thiazol-5-yl)ethynyl)phenyl)-4-(trifluoromethyl)picolinamide]	0.01 to 0.05	0.01 to 0.05	0.05 to 0.1	
